Data on 8 substances can be found in patent US9624280B2 (JANSSEN BIOTECH, INC., priority 2013, dated 2017).

Entries after “also recorded” stand apart in the source; their conditions may differ. Read-outs that look alike come from different tables or passages of the source. No end group written: not given here.

One test addresses T1, human Nav1.6 (Homo sapiens, UniProt Q9UQD0).
T1 construct: expressed in transfected cells
Format: cell-based.

For test [1], the system named is C57Bl/6 mice. Nature of the test: CFA model of inflammatory pain, thermal hyperalgesia (Hargreaves test). The test is classed as in vivo. Conditions: for Thermal MPE %: CFA model, mice, mean±s.e.m. (n). On the procedure:
(§1) Male C57Bl/6 mice (24-26 g), ordered from Charles River and housed individually, were used for this study.
This box consists of a chamber with a raised glass floor maintained at a constant temperature (27° C.). The thermal nociceptive stimulus originates from a projection bulb light beam below the glass surface. The light beam is aimed at the area between toris (center plantar). The “start” button will turn on the light and start the timer. Movements (such as a sudden withdrawal) of the stimulated paw will trigger the switch to turn off the light and stop the timer. […] If no movement occurs, the bulb will be turned off after 20 seconds (cutoff) to prevent tissue injury. The animals were allowed to habituate on the glass surface for 30-60 minutes before PWL measurement.
(§2) Percent maximum possible effect (MPE %)=(T1−T0)/(Tc−T0)×100%. T0: threshold on day0 (post-CFA, pre-pump); T1: threshold on day1 post pump implantation; Tc: cut-off of the test (20 s for the Hargreaves test and 2 g for the Von Frey test)
(§3) Animals were anesthetized with isoflurane (4% induction and 2% maintenance) and 20 μL of 100% Complete Freund's Adjuvant (CFA; Sigma-Aldrich; Saint Louis, Mo.) was injected into the center plantar area on one hind paw using a 27 gauge needle attached to a 50 μL Hamilton syringe. Carrageenan model: Animals were anesthetized with isoflurane (4% induction and 2% maintenance) and 25 μL of 2% A-carrageenan (Sigma-Aldrich; Saint Louis, Mo.) dissolved in normal saline was injected into the center plantar area on hind paws using an insulin syringe (BD; Franklin Lakes, N.J.).
(§4) Alzet micro-osmotic mini pumps (Durect Corporation Model 1003D and 2001D) were filled and primed per manufacturer's guide. Mice were anesthetized with isoflurane (5% induction; 2% maintenance). Their backs were shaved, wiped down with isopropyl alcohol and povidone iodine, and a small incision was made between the scapulae. Using a pair of forceps or hemostat, a small pocket was formed by spreading the subcutaneous connective tissues apart. The pump was inserted into the pocket with the flow moderator pointing away from the incision. The skin incision was then closed using 7 mm staples and the animals were allowed to recover in their home cages.
(§5) Data are represented as mean±s.e.m. Prism (Graphpad Software Inc., La Jolla, Calif.) was used for graphing and statistical analysis. For comparison of threshold values over time, a two-way ANOVA followed by Bonferroni's multiple comparison test was used with a significance level of p<0.05. Hotplate and MPE % data were analyzed by one-way ANOVA followed by Bonferroni's multiple comparison test.

Test [2] concerns C57Bl/6 mice. Nature of the test: Hotplate test. Format: in vivo. As to the method: as §1
Animals were placed on a 10″×10″ metal plate surrounded by 4 Plexiglas walls (15 inches high). The plate was maintained at a temperature of either 50 or 55° C. The response latency (time when the animal first flinches or licks its hind paw, jumps, or vocalizes) was measured and the animal removed from the plate. Animals showing no response were removed from the plate after 40 s (50° C.) or 20 s (55° C.) to prevent any possible tissue damage. This trial was repeated 2-5 times every 15-60 minutes in a day.
as §4, §5

The subject of test [3] is C57Bl/6 mice. Conditions: mouse, in vivo.
Test [4] has as its system C57Bl/6 mice. Nature of the test: CFA model, tactile allodynia (Von Frey test). Format: in vivo.
Source text: as §1
7 graded stimuli (von Frey filaments: 0.03, 0.07, 0.16, 0.4, 0.6, 1, 2 g; Stoelting, Wood Dale, Ill.) were used. Von Frey hairs were presented perpendicularly against the center plantar area (between toris) on a hindpaw. Sufficient force was applied to bend the filament slightly and held for 3 seconds. Per the Chaplan paper, a positive response can be either 1) a sharp withdrawal or 2) immediate flinching upon removal of the filament. See Chaplan et al for more details. Mice were acclimated to the wire mesh in the testing chamber for 30-60 minutes prior to testing.
as §2, §3
Alzet micro-osmotic mini pumps (Durect Corporation Model 1003D and 2001D) were filled and primed per manufacturer's guide. Mice were anesthetized with isoflurane (5% induction; 2% maintenance). Their backs were shaved, wiped down with isopropyl alcohol and povidone iodine, and a small incision was made between the scapulae. Using a pair of forceps or hemostat, a small pocket was formed by spreading the subcutaneous connective tissues apart. […]
Data are represented as mean±s.e.m. […] Hotplate and MPE % data were analyzed by one-way ANOVA followed by Bonferroni's multiple comparison test.

The target of the next test is human Nav1.5 (Homo sapiens, UniProt Q14524).
Sequence of human Nav1.5 (Q14524 whole entry): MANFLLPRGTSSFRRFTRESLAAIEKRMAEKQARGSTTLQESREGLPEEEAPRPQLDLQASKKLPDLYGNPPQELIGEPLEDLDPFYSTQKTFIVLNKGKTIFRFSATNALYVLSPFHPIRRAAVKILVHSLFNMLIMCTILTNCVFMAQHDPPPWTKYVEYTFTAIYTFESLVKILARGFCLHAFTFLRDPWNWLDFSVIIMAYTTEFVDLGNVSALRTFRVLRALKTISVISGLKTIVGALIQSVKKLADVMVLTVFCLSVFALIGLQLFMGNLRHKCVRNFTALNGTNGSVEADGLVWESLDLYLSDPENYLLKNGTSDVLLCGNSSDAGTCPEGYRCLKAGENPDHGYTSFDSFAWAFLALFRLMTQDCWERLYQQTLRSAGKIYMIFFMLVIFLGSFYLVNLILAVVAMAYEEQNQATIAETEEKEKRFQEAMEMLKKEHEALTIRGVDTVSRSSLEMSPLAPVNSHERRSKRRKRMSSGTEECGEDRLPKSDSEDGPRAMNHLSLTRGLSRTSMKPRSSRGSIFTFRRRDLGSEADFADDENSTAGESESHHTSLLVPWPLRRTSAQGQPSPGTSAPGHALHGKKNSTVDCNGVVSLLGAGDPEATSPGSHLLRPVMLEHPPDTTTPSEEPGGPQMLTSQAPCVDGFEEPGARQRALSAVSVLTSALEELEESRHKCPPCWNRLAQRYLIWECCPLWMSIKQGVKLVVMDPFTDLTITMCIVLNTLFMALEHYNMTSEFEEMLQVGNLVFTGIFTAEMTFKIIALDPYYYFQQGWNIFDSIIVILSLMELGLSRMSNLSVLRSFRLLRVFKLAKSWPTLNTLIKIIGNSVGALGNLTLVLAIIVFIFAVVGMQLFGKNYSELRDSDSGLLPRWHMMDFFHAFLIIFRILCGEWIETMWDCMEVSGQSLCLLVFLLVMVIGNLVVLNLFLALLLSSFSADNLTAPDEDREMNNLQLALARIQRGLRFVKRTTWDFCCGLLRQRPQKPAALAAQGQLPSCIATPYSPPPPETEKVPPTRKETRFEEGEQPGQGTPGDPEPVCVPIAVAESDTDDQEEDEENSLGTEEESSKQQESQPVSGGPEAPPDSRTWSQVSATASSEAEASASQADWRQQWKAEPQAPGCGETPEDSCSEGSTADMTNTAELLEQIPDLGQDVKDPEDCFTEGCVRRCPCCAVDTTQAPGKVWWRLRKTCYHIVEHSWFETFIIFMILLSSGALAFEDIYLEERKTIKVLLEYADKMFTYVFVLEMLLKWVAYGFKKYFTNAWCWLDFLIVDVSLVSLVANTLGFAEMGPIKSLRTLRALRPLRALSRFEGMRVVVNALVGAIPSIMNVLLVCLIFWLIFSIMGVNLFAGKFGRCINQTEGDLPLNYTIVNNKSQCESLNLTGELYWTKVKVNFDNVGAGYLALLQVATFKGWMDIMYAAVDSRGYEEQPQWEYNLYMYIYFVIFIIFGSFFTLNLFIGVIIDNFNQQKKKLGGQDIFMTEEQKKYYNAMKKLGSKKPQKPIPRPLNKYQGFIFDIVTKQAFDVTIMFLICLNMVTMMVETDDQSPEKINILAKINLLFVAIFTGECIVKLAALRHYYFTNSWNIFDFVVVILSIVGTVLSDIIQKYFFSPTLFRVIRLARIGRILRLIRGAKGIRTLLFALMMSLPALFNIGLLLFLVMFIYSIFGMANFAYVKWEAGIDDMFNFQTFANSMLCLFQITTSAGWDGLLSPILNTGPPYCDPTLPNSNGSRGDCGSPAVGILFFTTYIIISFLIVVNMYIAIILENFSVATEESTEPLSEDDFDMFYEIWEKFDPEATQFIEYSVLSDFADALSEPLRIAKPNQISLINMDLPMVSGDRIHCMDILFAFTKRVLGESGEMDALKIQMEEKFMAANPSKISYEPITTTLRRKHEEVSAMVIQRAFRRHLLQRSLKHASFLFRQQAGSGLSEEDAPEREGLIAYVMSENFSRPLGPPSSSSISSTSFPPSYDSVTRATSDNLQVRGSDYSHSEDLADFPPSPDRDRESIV
Another test deals with rodent. Conditions: Schmalhofer et al. 2008; cited from earlier work.
Another test concerns isolated nerves. Conditions: unless the perineural barrier is compromised; Hackel et al. 2012; cited from earlier work.
Setting [5] is: 228 μg/day/mouse by subcutaneous osmotic mini-pump.
Where [6] appears, read: 1824 μg/day/mouse by subcutaneous osmotic mini-pump.
[7] abbreviates: 684 and 1824 μg/day, subcutaneous osmotic mini-pump.

T1 sequence (Q9UQD0 whole entry): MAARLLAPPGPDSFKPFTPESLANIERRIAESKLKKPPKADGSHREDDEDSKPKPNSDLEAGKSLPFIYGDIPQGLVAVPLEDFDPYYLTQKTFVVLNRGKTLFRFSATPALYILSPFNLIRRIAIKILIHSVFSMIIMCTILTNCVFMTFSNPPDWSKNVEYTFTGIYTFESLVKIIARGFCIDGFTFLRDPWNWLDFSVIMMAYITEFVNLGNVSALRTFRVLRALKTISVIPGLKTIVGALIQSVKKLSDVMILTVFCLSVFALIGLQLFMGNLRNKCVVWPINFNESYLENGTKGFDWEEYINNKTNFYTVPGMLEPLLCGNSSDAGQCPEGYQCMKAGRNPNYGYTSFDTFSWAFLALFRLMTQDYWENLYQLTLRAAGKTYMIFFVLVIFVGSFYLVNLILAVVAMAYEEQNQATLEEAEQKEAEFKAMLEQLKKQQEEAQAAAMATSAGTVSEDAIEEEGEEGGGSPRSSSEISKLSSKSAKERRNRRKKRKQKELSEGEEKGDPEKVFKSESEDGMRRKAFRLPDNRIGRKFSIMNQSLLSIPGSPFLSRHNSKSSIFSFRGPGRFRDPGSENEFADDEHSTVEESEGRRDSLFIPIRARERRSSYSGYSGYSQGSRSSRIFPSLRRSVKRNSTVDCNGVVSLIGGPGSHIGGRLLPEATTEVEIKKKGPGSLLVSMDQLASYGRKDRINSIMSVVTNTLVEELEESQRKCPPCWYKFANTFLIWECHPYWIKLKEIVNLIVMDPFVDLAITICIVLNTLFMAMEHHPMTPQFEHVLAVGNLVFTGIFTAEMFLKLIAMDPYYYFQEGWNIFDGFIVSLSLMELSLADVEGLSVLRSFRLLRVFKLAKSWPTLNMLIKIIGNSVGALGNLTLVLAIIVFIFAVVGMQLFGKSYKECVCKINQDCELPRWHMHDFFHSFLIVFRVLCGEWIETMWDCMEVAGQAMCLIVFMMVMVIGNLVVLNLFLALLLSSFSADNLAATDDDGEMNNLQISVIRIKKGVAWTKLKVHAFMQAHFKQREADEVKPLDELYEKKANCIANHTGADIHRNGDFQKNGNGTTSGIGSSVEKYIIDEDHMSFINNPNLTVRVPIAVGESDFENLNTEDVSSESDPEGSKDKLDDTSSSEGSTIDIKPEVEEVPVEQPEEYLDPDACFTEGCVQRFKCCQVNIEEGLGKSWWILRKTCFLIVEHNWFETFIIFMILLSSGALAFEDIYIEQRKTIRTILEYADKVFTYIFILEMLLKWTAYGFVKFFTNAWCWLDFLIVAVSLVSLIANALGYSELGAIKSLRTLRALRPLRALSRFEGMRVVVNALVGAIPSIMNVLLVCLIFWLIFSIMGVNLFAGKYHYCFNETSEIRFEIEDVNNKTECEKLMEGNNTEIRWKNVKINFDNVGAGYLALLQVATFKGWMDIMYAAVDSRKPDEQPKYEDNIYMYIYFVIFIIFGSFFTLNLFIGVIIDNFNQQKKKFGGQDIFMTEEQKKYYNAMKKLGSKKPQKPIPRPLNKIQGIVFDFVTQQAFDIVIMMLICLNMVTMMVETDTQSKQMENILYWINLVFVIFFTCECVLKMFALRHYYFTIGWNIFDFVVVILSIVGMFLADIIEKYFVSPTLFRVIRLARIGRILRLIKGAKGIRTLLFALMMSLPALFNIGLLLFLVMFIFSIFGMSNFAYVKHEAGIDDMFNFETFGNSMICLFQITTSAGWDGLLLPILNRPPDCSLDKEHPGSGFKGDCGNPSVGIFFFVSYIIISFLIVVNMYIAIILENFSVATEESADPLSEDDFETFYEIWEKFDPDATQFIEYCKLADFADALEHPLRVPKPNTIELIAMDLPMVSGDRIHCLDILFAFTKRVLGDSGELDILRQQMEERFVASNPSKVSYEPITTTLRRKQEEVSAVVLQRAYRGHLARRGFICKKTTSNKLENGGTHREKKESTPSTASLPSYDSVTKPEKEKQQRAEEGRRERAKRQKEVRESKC

With “GPQCQKWMQTCDAERKCCEGFVCRLWCKKKLW-OH (cysteine pairing not given here) [NV1D2775]”, at human Nav1.6, the “selectivity for Nav1.7 compared to recombinant Protoxin-II” value (“selectivity” for short) is given as “improved selectivity”. For the same substance, the “thermal latencies after peptide administration” value in the test on C57Bl/6 mice [1] (1824 μg/day, cut-off 20 s) is listed as “close to the cut-off”. In the test with C57Bl/6 mice [1] (setting [5]), the “Thermal MPE %” value is 35 ± 8 (8) %. In addition, the “Thermal MPE %” value in the test on C57Bl/6 mice [1] (setting [6]) came to 85 ± 6 %. Besides, in the test with C57Bl/6 mice [1] (mouse, in vivo), the “efficacy in the CFA model” value is “strong efficacy”; the “time at which anti-hyperalgesic effect was first seen, post-pump implantation” value turned out to be 4 h; the “time at which effect reached the maximum, thermal test” value stood at 8 h; the “time by which thermal latency returned to control level post pump implantation” value was at most 48 h. Moreover, the “hotplate thermal latency compared to the PBS control” value with C57Bl/6 mice [2] (228 μg/day) is “modest yet significant increase”. In addition, the “hotplate latencies at 50 and 55° C.” value in the test on C57Bl/6 mice [2] (1824 μg/day) was “near cut-off”. The “efficacy in the hotplate test” value in the test on C57Bl/6 mice [2] (mouse, in vivo, listed as NV1D2775-OH) was “strong, dose-dependent efficacy; also recorded: significant analgesia”. Besides, in the test with C57Bl/6 mice [3], the “analgesia, thermal withdrawal latency on day1 post-pump” value is reported as “significant analgesia” and the “protection from carrageenan-induced thermal hyperalgesia” value is “fully protected”. Besides, the CFA-induced tactile allodynia result with C57Bl/6 mice [4] (1824 μg/day) was “reversed”. Besides, in the test on C57Bl/6 mice [4] (mouse, in vivo), the “time at which effect reached the maximum, tactile test” value turned out to be 8 h and the “time by which tactile threshold returned to control level post pump implantation” value is reported as at most 48 h.

Turning to “GPQCQKWMQTCDRERKCCEGFVCTLWCRKKLW-NH-methyl [NV1D3034-NH-methyl]”, the “selectivity” value at human Nav1.6 is reported as “improved selectivity”. The “Thermal MPE %” value with C57Bl/6 mice [1] (setting [6]) is listed as 49 ± 17 (6) %. The “reversal of CFA-induced thermal hyperalgesia” value (from here on “reversal”) with C57Bl/6 mice [1] (dose not given) is “readily reversed”.

For “GPQCQKWMQTCDRERKCCEGFVCTLWCRKKLW-OH (cysteine pairing not given here) [NV1D3034]”, the “reversal” value in the test on C57Bl/6 mice [1] (setting [7]) is “completely reversed”. Also, the entries for the “Thermal MPE %” value with C57Bl/6 mice [1] (setting [5]) and with C57Bl/6 mice [1] (setting [6]) were 22 ± 6 (6) % and 50 ± 6 (8) %, respectively.

“GPQCQKWMQTCDRTRKCCEGFVCTLWCRKKLW-NH2 [NV1D3368-NH2]”: the “selectivity” value on human Nav1.6 is listed as “improved selectivity”. In addition, the figures for the “Thermal MPE %” value in the test with C57Bl/6 mice [1] (setting [5]) and in the test on C57Bl/6 mice [1] (setting [6]) were 27 ± 4 (4) % and 55 ± 15 (6) %, respectively. Also, the “reversal” value with C57Bl/6 mice [1] (dose not given) is “readily reversed”.

On to “GPQCQKWMQTCDRTRKCCEGFVCTLWCRKKLW-OH (cysteine pairing not given here) [NV1D3368]”, for which the “selectivity” value on human Nav1.6 was “improved selectivity”. The “reversal” value with C57Bl/6 mice [1] (setting [7]) is “fully reversed”. In addition, the “Thermal MPE %” value in the test on C57Bl/6 mice [1] (setting [5]) is reported as 23 ± 8 (7) %; in the test with C57Bl/6 mice [1] (setting [6]), 47 ± 6 (8) %.

Regarding “GPSCQKWMQTCDAERKCCEGFVCRLWCKKKLW-OH (cysteine pairing not given here) [NV1D2773]”, the IC50 (in general, the point on the concentration scale where inhibition reaches its midpoint) on human Nav1.5 (human, pH 7.4) was over 3000 nM.

Regarding “GPYCQKWMWTCDSERKCCEGMVCRLWCKKKLW-COOH [NV1D12, reference compound]”, the IC50 was about 62 nM at human Nav1.6 (read-out: IC50 for Nav1.6, QPatch electrophysiology assay) and over 1000 nM at human Nav1.5.

“YCQKWMWTCDSERKCCEGMVCRLWCKKKLW-COOH [wild type Protoxin-II]”: the “efficacy in rodent models of acute and inflammatory pain” value in the test with rodent is on record as “non-efficacious”. The “inhibition of action potential firing in isolated nerves” value in the test with isolated nerves is “inability”.
